Source: patent publication US20110319485A1, “Composition Having Anti-Helicobacter Pylori Activity And Its Application To Inhibit Helicobacter Pylori” (Yushen Biotechnology & Medical Co, Ltd., priority 2010, published 2011)
≈ marks a conversion by molar mass, not a printed value. Read-outs that look alike come from different tables or passages of the source. Marks after values point to notes of the source that are not given here.

Tests used:
[1] = tested on: Helicobacter pylori BCRC 17027 strain; assay: Minimum bactericidal concentration (MBC), broth dilution; assay type: cell-based; settings: broth dilution assay, 1 hour exposure in Brucella broth, then plated 72 hours, means of three experiments
[2] = tested on: Helicobacter pylori BCRC 17027 strain; assay: Minimum inhibitory concentration (MIC), agar-dilution method; assay type: cell-based; settings: BCRC17027, agar dilution assay, TSA with 5% sheep blood, 72 hours, 37° C.
Protocol: H. pylori BCRC 17027 was obtained from the Bioresources Collection and Research Center (BCRC), Hsinchu, Taiwan, ROC. The H. pylori strain was cultured in 5 mL tryptic soy broth (TSB, each liter containing: 17 g peptone from casein, 3 g peptone from soymeal, 2.5 g dextrose, 5 g sodium chloride, 2.5 g dipotassium phosphate, pH 7.3) with a tryptic soy agar (TSA, each liter containing: 15 g peptone from casein, 5 g peptone from soymeal, 5 g sodium chloride, 15 g agar, pH 7.3) and slant containing 5% (v/v) of defibrinated sheep blood formed at the bottom of the test tube.
The broth was incubated in a microaerophilic jar system (BBL), featuring a gas composition of 5% O2, 10% CO2 and 85% N2 (BD GasPak™ EZ Gas Generating systems), at 37° C. for 72 hours. The cell suspension was then diluted with TSB to provide a cell concentration of 3×10^8 CFUs/mL for antimicrobial testing.
The MIC of the purified substance was determined by the agar-dilution method (Shungu et al., 1987, Antimicrob Agents Chemother, 31: 949-950). A volume of 40 μL of cell suspension (initial bacterial count 3×10^8 CFUs/mL) was spread onto the TSA agar plates containing 5% (v/v) defibrinated sheep blood. […] DMSO was used as control. Metronidazole (MTZ) and clarithromycin (CLA) were co-assayed as the positive reference at concentrations of 8.0-128.0 μg/mL and 0.008-0.128 μg/mL, respectively. Following incubation in a microaerophilic jar system, featuring a gas composition of 5% O2, 10% CO2 and 85% N2, at 37° C. for 72 hours, the colonies that had formed on the plates were enumerated. The MIC was defined as the minimum concentration of the test sample (antibacterial agent) in a given culture medium on which bacteria are not able to form colonies.

[3] = tested on: Helicobacter pylori; settings: A Vasquez et al., 1996; cited from earlier work
[4] = tested on: H. pylori BCRC 17027; assay: Inhibitory-zone measurement (agar well diffusion assay); assay type: cell-based, Helicobacter pylori; settings: for zone of inhibition at 40000 µg/mL: Helicobacter pylori, BCRC17027, 72 h, read-out: The diameter of inhibitory-zone
Protocol: H. pylori BCRC 17027 was obtained from the Bioresources Collection and Research Center (BCRC), Hsinchu, Taiwan, ROC. […] The cell suspension was then diluted with TSB to provide a cell concentration of 3×10^8 CFUs/mL for antimicrobial testing. An agar well diffusion assay was used to determine if H. pylori was susceptible to the anti-bacterial activity of the various fractions and isolates (al Somal et al., 1994, J R Soc Med, 87: 9-12). A volume of 100 μL for each of the bacterial suspensions tested (3×10^8 CFUs/mL) was spread onto the TSA agar plate containing 5% (v/v) defibrinated sheep blood. Wells sized 7 mm in diameter were punched on the plates with 5 μL of the Fr1-Fr5 and ovatodiolide (40 mg/mL; DMSO as solvent) to be individually incorporated into the wells. DMSO was used as negative control and metronidazole (MTZ, 40 mg/mL) was used as positive control.

[5] = Helicobacter pylori, BCRC17027, read-out: MBC
[6] = 5 μL of 40 mg/mL in DMSO per 7 mm well (200 μg/disk), 72 hours, 37° C., microaerophilic, mean±S.D.

## CC[C@H]1OC(=O)[C@H](C)[C@@H](O[C@H]2C[C@@](C)(OC)[C@@H](O)[C@H](C)O2)[C@H](C)[C@@H](O[C@@H]2O[C@H](C)C[C@H](N(C)C)[C@H]2O)[C@](C)(OC)C[C@@H](C)C(=O)[C@H](C)[C@@H](O)[C@]1(C)O [Clarithromycin]
[1]; [5]
  MBC: 1 µg/mL (≈ 1.34 µM)
[2]
  MIC: 0.032 µg/mL (≈ 0.0428 µM)
[3]
  minimum inhibitory concentration of known antibiotics: 0.25 µg/mL

## C=C1C(=O)OC2/C=C(\C)C[C@H]3C=C(CC/C=C(\C)CC[C@H]12)C(=O)O3 (stereo partly shown) [Ovatodiolide, ovatodiolide]
[1]; [5]
  MBC: 80 µg/mL (≈ 244 µM)
[1]
  MBC: 80^b μg/mL
[4]; [6]
  The diameter of inhibitory-zone: 34.4 ± 2.0 mm
  zone of inhibition at 40000 µg/mL: 34 mm
[2]
  MIC: 16 µg/mL (≈ 48.7 µM)

## Cc1ncc([N+](=O)[O-])n1CCO [Metronidazole]
[1]; [5]
  MBC: 2560 µg/mL (≈ 15000 µM)
[4]; [6]
  zone of inhibition at 40000 µg/mL: 21.8 ± 3.1 mm
[4]; agar well diffusion
  Anti-Helicobacter pylori activity in inhibitory-zone assay (in words): inhibition halos smaller than ovatodiolide
[2]
  MIC: 64 µg/mL (≈ 374 µM)
[3]
  minimum inhibitory concentration of known antibiotics: 64 µg/mL
